The data set is described as follows: Drug efficacy test: body weight of the mice. The class given is in vivo, male nude mice (Balb nu/nu). The procedure:
Human prostate cancer PC-3 cells were inoculated under the dorsal skin of male nude mice (Balb nu/nu, 5-week-old, CHARLES RIVER LABORATORIES JAPAN, INC.) at 3×10^6 cells per mouse. At the time when the tumor volume reached 90.7±4.5 mm^3 (mean±standard error (SE)) (on day 10 after the inoculation), the drug was administered into the tail vein. […] It should be noted that the dosage is the amount in terms of the drug for each of the groups. […] It should be noted that, when the dosage of the bortezomib aqueous solution was set to more than 1 mg/kg, toxicity due to the active pharmaceutical ingredient became remarkable and the amount of body weight loss reached a severe level (e.g., a loss of 20% or more).

For the compound `CC(C)C[C@H](NC(=O)[C@H](Cc1ccccc1)NC(=O)c1cnccn1)B(O)O` [Comparative Example 2, bortezomib], the Body weight loss (dosage of more than 1 mg/kg, toxicity became remarkable) is on record as ≥ 20%. Moreover, the “Relative body weight 7 days after administration vs administration date” value (tail vein, 1 mg/kg) was “no significant difference in mouse body weight”.

Values taken from patent US9561284B2, “Pharmaceutical composition containing a block copolymer bound to a boronic acid compound” (NANOCARRIER CO., LTD., priority 2011, dated 2017).
